Where a name gives a salt, the structure may show the parent alone.
Legend:
[1] = tested on: uterus of ovariectomized (OVX) rats; assay: Uterine weight in ovariectomized rats (post-menopausal model, agonist activity); assay type: in vivo, Sprague Dawley rats; details: daily for 4 days; for Uterine Weight (% increase vs. OVX): oral
Method: (§1) In the examples illustrating the methods, a post-menopausal model was used in which effects of different treatments upon circulating lipids were determined.
(§2) Seventy-five day old female Sprague Dawley rats (weight range of 200 to 225g) were obtained from Charles River Laboratories (Portage, Mich.). The animals were either bilaterally ovariectomized (OVX) or exposed to a Sham surgical procedure at Charles River Laboratories, and then shipped after one week. Upon arrival, they were housed in metal hanging cages in groups of 3 or 4 per cage and had ad libitum access to food calcium content approximately 0.5%) and water for one week. Room temperature was maintained at 22.2°±1.7° C. with a minimum relative humidity of 40%. The photoperiod in the room was 12 hours light and 12 hours dark.
(§3) Dosing Regimen Tissue Collection. After a one week acclimation period (therefore, two weeks post-OVX) daily dosing with test compound was initiated. […] Animals were dosed daily for 4 days. Following the dosing regimen, animals were weighed and anesthetized with a ketamine: Xylazine (2:1, V:V) mixture and a blood sample was collected by cardiac puncture. The animals were then sacrificed by asphyxiation with CO2, the uterus was removed through a midline incision, and a wet uterine weight was determined.

[2] = tested on: Uterine Eosinophil Peroxidase (EPO); assay: Uterine Eosinophil Peroxidase (EPO) Assay in ovariectomized rats; assay type: in vivo, Sprague Dawley rats; parameters: key: max velocity of A450 increase over a 15 s interval; details: oral, daily for 4 days, OVX rats
Method: as §1, §2, §3
Uterine Eosinophil Peroxidase (EPO) Assay. Uteri were kept at 4° C. until time of enzymatic analysis. The uteri were then homogenized in 50 volumes of 50 mM Tris buffer (pH-8.0) containing 0.005% Triton X-100. Upon addition of 0.01% hydrogen peroxide and 10 mM O-phenylenediamine (final concentrations) in Tris buffer, increase in absorbance was monitored for one minute at 450 nm. The presence of eosonophils in the uterus is an indication of estrogenic activity of a compound. The maximal velocity of a 15 second interval was determined over the initial, linear portion of the reaction curve.

Serum Cholesterol = assay: Serum cholesterol analysis in ovariectomized rats; assay type: in vivo, Sprague Dawley rats; details: daily for 4 days; for Serum Cholesterol (% decrease vs. OVX): oral
Method: as §1, §2, §3
Cholesterol Analysis. Blood samples were allowed to clot at room temperature for 2 hours, and serum was obtained following centrifugation for 10 minutes at 3000 rpm. Serum cholesterol was determined using a Boehringer Mannheim Diagnostics high performance cholesterol assay. Briefly the cholesterol was oxidized to cholest-4-en-3-one and hydrogen peroxide. The hydrogen peroxide was then reacted with phenol and 4-aminophenazone in the presence of peroxidase to produce a p-quinone imine dye, which was read spectrophotemetrically at 500 nm. Cholesterol concentration was then calculated against a standard curve. The entire assay was automated using a Biomek Automated Workstation.

[3] = tested on: MCF-7 breast adenocarcinoma cells; assay: MCF-7 Proliferation Assay (tritiated thymidine); assay type: cell-based; details: 48 hours, tritiated thymidine incorporation; for IC50: Homo sapiens, MCF7
Method: MCF-7 breast adenocarcinoma cells (ATCC HTB 22) were maintained in MEM (minimal essential medium, phenol red-free, Sigma, St. Louis, Mo.) supplimented with 10% fetal bovine serum (FBS) (V/V), L-glutamine (2 mM), sodium pyruvate (1 mM), HEPES {(N-[2-hydroxyethyl]piperazine-N'-[2-ethanesulfonic acid]10 mM}, non-essential amino acids and bovine insulin (1 ug/mL) (maintenance medium). Ten days prior to assay, MCF-7 cells were switched to maintenance medium supplemented with 10% dextran coated charcoal stripped fetal bovine serum (DCC-FBS) assay medium) in place of 10% FBS to deplete internal stores of steroids. MCF-7 cells were removed from maintenance flasks using cell dissociation medium (Ca++/Mg++ free HBSS (phenol red-free) supplemented with 10 mM HEPES and 2 mM EDTA). Cells were washed twice with assay medium and adjusted to 80,000 cells/mL. Approximately 100 μL (8,000 cells) were added to flat-bottom microculture wells (Costar 3596) and incubated at 37° C. in a 5% CO2 humidified incubator for 48 hours to allow for cell adherence and equilibration after transfer. Serial dilutions of drugs or DMSO as a diluent control were prepared in assay medium and 50 μL transferred to triplicate microcultures followed by 50 μL assay medium for a final volume of 200 μL. After an additional 48 hours at 37° C. in a 5% CO2 humidified incubator, microcultures were pulsed with tritiated thymidine (1 uCi/well) for 4 hours. Cultures were terminated by freezing at -70° C. for 24 hours followed by thawing and harvesting of microcultures using a Skatron Semiautomatic Cell Harvester. Samples were counted by liquid scintillation using a Wallac BetaPlace β counter. Results in Table 2 below show the IC50 for certain compounds of the present invention.

[4] = Rattus norvegicus, po, 96 h, 0.1 mg/kg, read-out: Uterine Weight (% increase vs. OVX)
[5] = Rattus norvegicus, po, 96 h, 1.0 mg/kg, read-out: Uterine Weight (% increase vs. OVX)
[6] = Rattus norvegicus, po, 96 h, 10.0 mg/kg, read-out: Uterine Weight (% increase vs. OVX)
[7] = Rattus norvegicus, po, 96 h, 0.1 mg/kg, OVX rats, read-out: Serum Cholesterol (% decrease vs. OVX)
[8] = Rattus norvegicus, po, 96 h, 1.0 mg/kg, OVX rats, read-out: Serum Cholesterol (% decrease vs. OVX)
[9] = Rattus norvegicus, po, 96 h, 10.0 mg/kg, OVX rats, read-out: Serum Cholesterol (% decrease vs. OVX)

Row | SMILES | change in vivo at 0.1 mg/kg [1, 4] [%] | change in vivo at 1 mg/kg [1, 5] [%] | change in vivo at 10 mg/kg [1, 6] [%] | Uterine EPO (V. max) ([2]; 0.1 mg/kg) | Uterine EPO (V. max) ([2]; 1.0 mg/kg) | Uterine EPO (V. max) ([2]; 10.0 mg/kg) | inhibition in vivo at 0.1 mg/kg (Serum Cholesterol; [7]) [%] | inhibition in vivo at 1 mg/kg (Serum Cholesterol; [8]) [%] | inhibition in vivo at 10 mg/kg (Serum Cholesterol; [9]) [%] | IC50 [3] [nM] | IC50, MCF-7 proliferation [3] | also measured
1 | O=C(c1ccc(OCCN2CCCCC2)cc1)c1c(-c2cccc3ccccc23)sc2cc(O)ccc12 [Example 2, [2-(1-Naphthyl)-6-hydroxybenzothien-3-yl][4-[2-(1-piperdinyl)ethoxy]phenyl]methanone] | 28.8 | 28.1 | 21.2 | 4.5 | 4.8 | 3.6 | 56 | 60.6 | 70.6 | 0.8 | – | –
2 | O=C(c1ccc(OCCN2CCCCC2)cc1)c1c(-c2ccc3ccccc3c2)sc2cc(O)ccc12 [Example 4, [2-(2-Naphthyl)-6-hydroxybenzothien-3-yl][4-[2-(1-piperdinyl)ethoxy]phenyl]methanone] | 72.7 | 46.8 | 59.5 | 12.3 | 42.9 | 35.7 | 48.1 | 54.5 | 63.6 | 80 | – | –
3 | COc1ccc2c(C(=O)c3ccc(OCCN4CCCCC4)cc3)c(-c3cccs3)sc2c1 [Example 5, [2-(2-Thienyl)-6-methoxybenzothien-3-yl][4-[2-(1-piperdinyl)ethoxy]phenyl]methanone] | 2.4 | – | – | 3.0 | 3.3 | 4.2 | – | – | 26.3 | – | Not active at the concentration tested | Uterine Weight (% increase vs. OVX) ([1]; 1.0 mg/kg): 1.4%; Uterine Weight (% increase vs. OVX) ([1]; 10.0 mg/kg): 28.6%; Serum Cholesterol (% decrease vs. OVX) (Serum Cholesterol; 0.1 mg/kg): 6%; Serum Cholesterol (% decrease vs. OVX) (Serum Cholesterol; 1.0 mg/kg): -10.2%
4 | COc1ccc2c(C(=O)c3ccc(OCCN4CCCCC4)cc3)c(-c3cccs3)sc2c1 [Example 6, [2-(2-Thienyl)-6-methoxybenzothien-3-yl][4-[2-(1-piperdinyl)ethoxy]phenyl]methanone hydrochloride] | – | – | – | – | – | – | – | – | – | – | – | Uterine Weight (% increase vs. OVX) ([1]; 0.1 mg/kg, hydrochloride): 3.4%; Uterine Weight (% increase vs. OVX) ([1]; 1.0 mg/kg, hydrochloride): 4.2%; Uterine Weight (% increase vs. OVX) ([1]; 10.0 mg/kg, hydrochloride): 9.5%; Uterine EPO (V. max) ([2]; 0.1 mg/kg, hydrochloride): 3.3; Uterine EPO (V. max) ([2]; 1.0 mg/kg, hydrochloride): 4.8; Uterine EPO (V. max) ([2]; 10.0 mg/kg, hydrochloride): 4.8; Serum Cholesterol (% decrease vs. OVX) (Serum Cholesterol; 0.1 mg/kg, hydrochloride): 23.1%; Serum Cholesterol (% decrease vs. OVX) (Serum Cholesterol; 1.0 mg/kg, hydrochloride): 35.8%; Serum Cholesterol (% decrease vs. OVX) (Serum Cholesterol; 10.0 mg/kg, hydrochloride): 29.6%
5 | O=C(c1ccc(OCCN2CCCCC2)cc1)c1c(-c2cccs2)sc2cc(O)ccc12 [Example 7, [2-(2-Thienyl)-6-hydroxybenzothien-3-yl][4-[2-(1-piperdinyl)ethoxy]phenyl]methanone] | -1.7 | 32.4 | 46.9 | 1.8 | 4.5 | 8.4 | -18.6 | -0.9 | 51.4 | 20 | – | –
6 | COc1ccc2c(C(=O)c3ccc(OCCN4CCCCC4)cc3)c(-c3ccsc3)sc2c1 [Example 8] | 6.6 | 10.3 | 21.3 | 3.0 | 0.9 | 4.2 | -23.4 | -3.5 | 35 | – | Not active at the concentration tested | –
7 | O=C(c1ccc(OCCN2CCCCC2)cc1)c1c(-c2ccsc2)sc2cc(O)ccc12 [Example 9] | 8.8 | 1.2 | 54.3 | 0.9 | 3.3 | 2.4 | 0.6 | 29.8 | 31.9 | 10 | – | –
8 | COc1ccc(Cc2sc3cc(OC)ccc3c2C(=O)c2ccc(OCCN3CCCCC3)cc2)cc1 [Example 10, [2-(4-Methoxyphenyl)methyl-6-methoxybenzothien-3-yl][4-[2-(1-piperdinyl)ethoxy]phenyl]methanone] | -5.6 | 39.2 | 45.2 | 6.6 | 46.2 | 65.4 | 10.3 | 49 | 50 | – | Not active at the concentration tested | –
9 | O=C(c1ccc(OCCN2CCCCC2)cc1)c1c(Cc2ccc(O)cc2)sc2cc(O)ccc12 [Example 11, [2-(4-Hydroxyphenyl)methyl-6-hydroxybenzothien-3-yl][4-[2-(1-piperdinyl)ethoxy]phenyl]methanone] | 80.5 | 44.6 | 46.9 | 16.5 | 18.9 | 40.5 | 43 | 35.3 | 68.3 | 5 | – | change in vivo at 0.01 mg/kg ([1]; Rattus norvegicus, po, 96 h, 0.01 mg/kg, read-out: Uterine Weight (% increase vs. OVX)): 77.9%; Uterine EPO (V. max) ([2]; 0.01 mg/kg): 33.0; inhibition in vivo at 0.01 mg/kg (Serum Cholesterol; Rattus norvegicus, po, 96 h, 0.01 mg/kg, OVX rats, read-out: Serum Cholesterol (% decrease vs. OVX)): 41%
